{
  "source": "paper PMC8001788",
  "about": "“Decursin Alleviates Mechanical Allodynia in a Paclitaxel-Induced Neuropathic Pain Mouse Model” (Cells, 2021)",
  "target": "transient receptor potential vanilloid 1 (TRPV1) (Homo sapiens, UniProt Q8NER1)",
  "sequence (Q8NER1 whole entry)": "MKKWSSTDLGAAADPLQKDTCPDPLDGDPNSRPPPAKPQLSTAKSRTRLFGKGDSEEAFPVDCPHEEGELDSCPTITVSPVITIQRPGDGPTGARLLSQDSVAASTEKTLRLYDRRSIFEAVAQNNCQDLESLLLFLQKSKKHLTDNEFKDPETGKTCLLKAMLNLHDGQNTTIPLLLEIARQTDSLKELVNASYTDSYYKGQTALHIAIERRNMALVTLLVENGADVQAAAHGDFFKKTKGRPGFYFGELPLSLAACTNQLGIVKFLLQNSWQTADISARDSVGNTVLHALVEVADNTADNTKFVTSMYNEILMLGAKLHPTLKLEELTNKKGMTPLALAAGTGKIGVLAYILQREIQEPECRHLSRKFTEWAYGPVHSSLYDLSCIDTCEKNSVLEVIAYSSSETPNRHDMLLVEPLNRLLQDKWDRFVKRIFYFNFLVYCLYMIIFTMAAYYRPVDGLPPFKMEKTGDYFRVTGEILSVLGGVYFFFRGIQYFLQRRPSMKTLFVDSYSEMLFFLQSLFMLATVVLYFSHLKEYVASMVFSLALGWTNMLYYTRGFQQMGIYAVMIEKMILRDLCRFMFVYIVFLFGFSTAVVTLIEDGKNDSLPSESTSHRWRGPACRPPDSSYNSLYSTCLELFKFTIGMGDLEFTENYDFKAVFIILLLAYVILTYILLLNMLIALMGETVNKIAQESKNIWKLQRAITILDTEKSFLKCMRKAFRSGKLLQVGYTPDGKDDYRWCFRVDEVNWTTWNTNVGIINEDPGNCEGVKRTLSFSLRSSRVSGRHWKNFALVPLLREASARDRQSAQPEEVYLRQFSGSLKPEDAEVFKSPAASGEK",
  "experiment": "Fura-2 calcium imaging of capsaicin-induced Ca2+ in human TRPV1 stable HEK293 cells",
  "assay_type": "cell-based",
  "data": [
    {"compound": "CC(C)=CC(=O)O[C@H]1Cc2cc3ccc(=O)oc3cc2OC1(C)C", "note": "[decursin]", "values": [
      {"measurement": "IC50", "result": "0.69 ± 0.105", "unit": "µM"}
    ]}
  ]
}
